Numbers after ± are expanded uncertainties.
Experiments:
[1] = for mass density: 298.15 K, 101.33 kPa
[2] = refractive index (Na D-line) (dimensionless); conditions: 298.15 K; 101.33 kPa; Liquid

| SMILES | mass density ([1]; Liquid) [kg/m3] | refractive index [2] | other results |
| --- | --- | --- | --- |
| CC(C)CO [2-methyl-1-propanol] | 797.8 ± 2 | 1.3939 ± 0.001 | vapor or sublimation pressure ([1]; 379.55 K, Liquid): 95.23 ± 4.8 kPa; vapor or sublimation pressure ([1]; 379.75 K, Liquid): 95.76 ± 4.8 kPa |
| Cc1ccccc1O [2-methylphenol] | 1046 ± 2.9 | 1.5468 ± 0.001 | vapor or sublimation pressure ([1]; 461.85 K, Liquid): 95.76 ± 4.8 kPa |
| CC(C)(C)O [2-methylpropan-2-ol] | 781.2 ± 2 | 1.3852 ± 0.001 | vapor or sublimation pressure ([1]; 354.05 K, Liquid): 95.23 ± 4.8 kPa; vapor or sublimation pressure ([1]; 354.15 K, Liquid): 95.76 ± 4.8 kPa |
| Cc1ccc(O)cc1 [4-methylphenol] | – | 1.539 ± 0.001 | mass density ([1]; Crystal): 1155 ± 4 kg/m3; vapor or sublimation pressure ([1]; 472.85 K, Liquid): 95.23 ± 4.8 kPa |
| CCCCO [butan-1-ol] | 805.8 ± 2.1 | 1.3974 ± 0.001 | vapor or sublimation pressure ([1]; 389.45 K, Liquid): 95.76 ± 4.8 kPa; vapor or sublimation pressure ([1]; 391.55 K, Liquid): 95.23 ± 4.8 kPa |
| CCC(C)O (stereo not drawn) [butan-2-ol] | 802.4 ± 2.1 | 1.3953 ± 0.001 | vapor or sublimation pressure ([1]; 371.15 K, Liquid): 95.23 ± 4.8 kPa; vapor or sublimation pressure ([1]; 371.35 K, Liquid): 95.76 ± 4.8 kPa |
| CCO [ethanol] | 784.9 ± 2 | 1.3594 ± 0.001 | vapor or sublimation pressure ([1]; 349.95 K, Liquid): 95.23 ± 4.8 kPa; vapor or sublimation pressure ([1]; 350.05 K, Liquid): 95.76 ± 4.8 kPa |
| CO [methanol] | 786.4 ± 2 | 1.3265 ± 0.001 | vapor or sublimation pressure ([1]; 336.15 K, Liquid): 95.23 ± 4.8 kPa; vapor or sublimation pressure ([1]; 336.35 K, Liquid): 95.76 ± 4.8 kPa |
| CCCO [propan-1-ol] | 799.6 ± 2.2 | 1.3837 ± 0.0008 | vapor or sublimation pressure ([1]; 368.85 K, Liquid): 95.23 ± 4.8 kPa; vapor or sublimation pressure ([1]; 368.95 K, Liquid): 95.76 ± 4.8 kPa |
| CC(C)O [propan-2-ol] | 781.3 ± 2 | 1.3752 ± 0.001 | vapor or sublimation pressure ([1]; 353.95 K, Liquid): 95.23 ± 4.8 kPa; vapor or sublimation pressure ([1]; 354.05 K, Liquid): 95.76 ± 4.8 kPa |

From the NIST ThermoML archive (doi:10.1016/j.fluid.2006.03.018)
